Experimental findings from patent US8372967B2, “Compounds and methods for modulating expression of GCCR” (Isis Pharmaceuticals, Inc., priority 2006, dated 2013) are described below.

Strand notation (5' to 3'): a small letter for the sugar, then the base; units joined by * are phosphorothioate-linked, units joined directly phosphodiester-linked; [ ] holds rarer units or linkages, { } end groups; capitals alone tell only the bases. [PAM-N] = nucleoside carrying a 2'-(butylacetamido)-palmitamide group (palmitic acid C16 conjugate) (N: the base); l = locked nucleic acid (LNA); [5mC] = 5-methylcytosine; d = 2'-deoxy (DNA)

The series is described as follows: Triglycerides, total cholesterol, HDL-C, LDL-C and adverse effects (Example 30). It is filed as in vivo, mouse. The protocol: 0.4, and 0.16 umol/kg. Each dose group consisted of four animals. A 5-10-5 MOE gapmer was used for a control treatment. Mice were sacrificed approximately 48 hours following the final dose. Liver tissue was collected for RNA isolation, and blood was collected for serum chemistry analyses. ApoB mRNA levels were measured by real-time PCR as described herein. ApoB mRNA levels were normalized to RNA levels as determined by RIBOGREEN, and are presented in Table 95 as percent inhibition relative to ApoB mRNA levels in saline-treated control animals.
At the 2.5 umol/kg dose, ApoB inhibition by the short antisense compounds was greater than observed with a 5-10-5 MOE gapmer at an equivalent dose. […] Triglycerides were reduced at the 2.5 and […] doses of ISIS 387462 and ISIS 391872.

Consider “ISIS 391872: GGTACATGGAAGTC 1-1-10-2 2′-(butylacetomido)-palmitamide Methyleneoxy BNA/Methyleneoxy BNA, Unmodified cytosines in gap, ApoB ([PAM-G]*lG*dT*dA*dC*dA*dT*dG*dG*dA*dA*dG*lT*l[5mC])”, for which the Triglycerides entry (at the 2.5 and 1.0 mg/kg doses) is given as “reduced”. For the same substance, the “total cholesterol, HDL-C and LDL-C” value (in a dose-dependent manner) was “markedly reduced”.
